Earlier results in patent US8575191B2, “Methods for treatment of non-small cell lung cancer” (priority 2010, dated 2013).

Tested on: NSCLC

For `C#Cc1cccc(Nc2ncnc3cc(OCCOC)c(OCCOC)cc23)c1` [erlotinib], the “survival HR compared to placebo” value (adenocarcinoma) is given as 0.8 and the response rate (unselected NSCLC patients previously treated with chemotherapy) is given as 9%.
